Data from PubChem BioAssay AID1963870 (Molecular Pharmacology Branch, DTP, NCI, 2024).

Tested on: 292921-168-R-J2-PDC KRAS tumor spheroid viability
Test: Anticancer human tumor 292921-168-R-J2-PDC patient-derived pancreatic carcinoma cell line growth inhibition [KRAS2]
Conditions: spheroids with HUVEC and MSC; for IC50: curve of first compound; for viability, T/C: stronger effect = lower value
Source text: Multicellular complex tumor spheroid response to RAS pathway inhibitors in combination with a targeted agents in patient-derived cell lines with oncogenic KRAS variants from multiple cancer types
A high-throughput screen of multi-cell type tumor spheroids was designed to identify active combinations of targeted small molecules and KRAS pathway inhibitors. Complex spheroids include a stromal component modeled by human endothelial cells (HUVEC) and fibroblasts modeled by human mesenchymal stem cells (MSCs). The concentration ranges selected for each drug and investigational agent were based upon clinically achievable concentrations if the clinical Cmax of the agent was known.
Compounds. The drugs and investigational agents: BI-3406 (NSC825286), BAY-293 (NSC824723), batoprotafib (TNO155; NSC825523), sotorasib (AMG 510; NSC818433), MRTX1257 (NSC819558), elimusertib (BAY 1895344; NSC800525), molibresib (GSK525762; NSC774829), temuterkib (LY3214996; NSC803410), venetoclax (NSC766270), alisertib (NSC759677), olaparib (NSC753686), talazoparib (NSC767125), erdafitinib (NSC781556), ipatasertib (NSC767898), cabozantinib (NSC761068), nintedanib (NSC756659), abemaciclib (NSC768073), docetaxel (NSC628503), trametinib (NSC758246), and sapanisertib (NSC764658) were obtained from the National Cancer Institute (NCI) Developmental Therapeutics Program Chemical Repository. The FDA-approved anticancer drug set is available from the Developmental Therapeutics Program. […] The stock solutions were prepared in dimethyl sulfoxide (DMSO, Sigma-Aldrich, St. Louis, MO, cat. D2650) at 800-fold the tested concentration and stored at -70 degrees C prior to their use. All drugs and investigational agents were tested over a range starting from a high concentration at or near the clinical Cmax and decreasing in half-log increments. If the clinical Cmax for an agent had not been determined, the highest concentration tested was 10 microM.
Cell Culture. All cells were maintained in an incubator at 37 degrees C and 5% CO2 with 95% humidity. The PDC lines were cultured according to standard operating procedures established by the NCI PDMR (https://pdmr.cancer.gov/sops/default.htm). Briefly, all PDCs were thawed and cultured in Matrigel-coated flasks prepared with a working solution of 1X Ham's F-12 nutrient mix, without supplementation (Invitrogen, Waltham, MA, cat. 11765054), 100 U/mL penicillin-streptomycin (Invitrogen, cat. 15140122), and 2.5% Matrigel (Corning Inc., Corning, NY, cat. 354248) for the first three passages. All PDCs were cultured in complete DMEM/F-12 media containing advanced DMEM/F-12 (Invitrogen, cat. 12634028), 4.9% defined fetal bovine serum, heat inactivated (HyClone Laboratories Inc., Logan, UT, cat. SH30070.03HI), 389 ng/mL hydrocortisone (Sigma-Aldrich, cat. H4001), 9.7 ng/mL human EGF recombinant protein (Invitrogen, cat. PHG0313), 23.4 microg/mL adenine (Sigma-Aldrich, cat. A2786), 97.3 U/mL penicillin-streptomycin (Invitrogen, cat. 15140122), 1.9 mM L-glutamine (Invitrogen, cat. 25030081), and 9.7 microM Y-27632 dihydrochloride (Tocris Bioscience, Bristol, United Kingdom, cat. 1254). The PDCs were cultured in complete DMEM/F12 media without 9.7 microM Y-27632 dihydrochloride for at least two passages prior to the screen. The established cell line HOP-62 was cultured in RPMI 1640 medium, HEPES (Invitrogen, cat. 22400105) with 10% defined fetal bovine serum (HyClone Laboratories Inc., cat. SH30070.03) and 2 mM L-glutamine (Invitrogen, cat. 25030081). The pooled donor HUVEC were cultured in endothelial cell growth medium 2 (PromoCell, Heidelberg, Germany, cat. C-22011) and the hMSC were cultured in mesenchymal stem cell growth medium 2 (PromoCell, cat. C-28009). For all experiments, HUVEC and hMSC were used at passages </=5, while the malignant cell lines were used at passages </=15. […]
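Further: drug exposure lasted seven days after spheroids formed for three days.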
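Wherever viability, T/C is given: percent of DMSO vehicle control viability which is 100%.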

Cn1ncnc1[C@H]1c2n[nH]c(=O)c3cc(F)cc(c23)N[C@@H]1c1ccc(F)cc1 + CC1OCC2(CCN(c3cnc(Sc4ccnc(N)c4Cl)c(N)n3)CC2)C1N
IC50 (second compound 0.1 µM): > 100 nM
IC50 (second compound 0.316 µM): > 100 nM
IC50 (second compound 1 µM): 0.634 nM
IC50 (second compound 3.16 µM): < 0.316 nM
IC50 (second compound 10 µM): < 0.316 nM
viability, T/C (second compound 0.1 µM, first compound 0.000316 µM): 84.8%
viability, T/C (second compound 0.1 µM, first compound 0.001 µM): 78.6%
viability, T/C (second compound 0.1 µM, first compound 0.00316 µM): 82.5%
viability, T/C (second compound 0.1 µM, first compound 0.01 µM): 76.4%
viability, T/C (second compound 0.1 µM, first compound 0.0316 µM): 66.3%
viability, T/C (second compound 0.1 µM, first compound 0.1 µM): 58.2%
viability, T/C (second compound 0.316 µM, first compound 0.000316 µM): 66.1%
viability, T/C (second compound 0.316 µM, first compound 0.001 µM): 60.9%
viability, T/C (second compound 0.316 µM, first compound 0.00316 µM): 65%
viability, T/C (second compound 0.316 µM, first compound 0.01 µM): 56%
viability, T/C (second compound 0.316 µM, first compound 0.0316 µM): 59.4%
viability, T/C (second compound 0.316 µM, first compound 0.1 µM): 51.9%
viability, T/C (second compound 1 µM, first compound 0.000316 µM): 48.7%
viability, T/C (second compound 1 µM, first compound 0.001 µM): 51.7%
viability, T/C (second compound 1 µM, first compound 0.00316 µM): 49.2%
viability, T/C (second compound 1 µM, first compound 0.01 µM): 44.4%
viability, T/C (second compound 1 µM, first compound 0.0316 µM): 39.2%
viability, T/C (second compound 1 µM, first compound 0.1 µM): 39.1%
viability, T/C (second compound 3.16 µM, first compound 0.000316 µM): 40.8%
viability, T/C (second compound 3.16 µM, first compound 0.001 µM): 39%
viability, T/C (second compound 3.16 µM, first compound 0.00316 µM): 37.4%
viability, T/C (second compound 3.16 µM, first compound 0.01 µM): 36.2%
viability, T/C (second compound 3.16 µM, first compound 0.0316 µM): 33.4%
viability, T/C (second compound 3.16 µM, first compound 0.1 µM): 30.8%
viability, T/C (second compound 10 µM, first compound 0.000316 µM): 34.5%
viability, T/C (second compound 10 µM, first compound 0.001 µM): 34.5%
viability, T/C (second compound 10 µM, first compound 0.00316 µM): 32%
viability, T/C (second compound 10 µM, first compound 0.01 µM): 30.6%
viability, T/C (second compound 10 µM, first compound 0.0316 µM): 29.5%
viability, T/C (second compound 10 µM, first compound 0.1 µM): 26.5%
